For this test, the system named is mice stressed by MCS. Kind of test: forced swimming test after moderate chronic stress (MCS) protocol. Format: in vivo, mice (male BALB/c ByJIco). Conditions: β3 agonist 1 mg/kg; for Percentage of time (immobile time of stressed animals relative to the unstressed animals): forced swimming test on day 50, 1 intraperitoneal injection per day from day 15 to day 50, fluoxetine hydrochloride 3 mg/kg; for Immobile time: forced swimming test on day 50, measured over 5 minutes, 1 intraperitoneal injection per day from day 15 to day 50, fluoxetine hydrochloride 3 mg/kg; for effect of repeated administration on immobile time (in words): forced swimming test on day 50, repeated intraperitoneal administration day 15 to day 50, fluoxetine 3 mg/kg. The method, then:
The antidepressant effects of the combination according to the invention were evaluated in mice using the moderate chronic stress (MCS) protocol. This test was developed on rats by Willner (P. Willner, Neuroscience and Biobehavioral Review, 1992, 16, 525-34) and adapted to mice by Kopp et al. (C. Kopp, Behavioral Pharmacology, 1999, 10, 73-83).
Similarities between the depressive state in man and the effect of moderate chronic stress in mice were established. The emotivity of mice stressed by MCS was evaluated in the forced swimming test.
The MCS is performed in the following manner:
Male BALB/c ByJIco mice (Iffa Credo Lyons, France) 8 weeks old are placed in individual experiment cages (26×20×14 cm), provided with food and water ad libitum, at a controlled temperature of 22±1° C.
In the context of the protocol, the mice are subjected to a series of stresses such as forced bathing, food and/or water deprivation, housing in cages containing wet sawdust, permutation of the day/night cycle, maintenance under constant illumination or in darkness, each of these restrictions possibly lasting from 2 hours to 24 hours.
A first group of control animals is not subjected to the MCS (group 1—unstressed).
The animals subjected to the MCS are divided into 4 groups on day 15: • Group 2 (saline stress) consists of control animals receiving one intraperitoneal injection per day of physiological fluid. • Group 3 (fluoxetine stress) receives 1 intraperitoneal injection per day of fluoxetine hydrochloride at a rate of 3 mg/kg. • Group 4 (β3 agonist stress) receives 1 intraperitoneal injection per day of ethyl [(7S)-7(2R)-2-(3-chlorophenyl)-2-hydroxyethylamino-5,6,7,8-tetrahydronaphthalen-2-yloxy]acetate hydrochloride at a rate of 1 mg/kg. • Group 5 (fluoxetine+β3 agonist stress) receives 1 intraperitoneal injection per day of a solution containing fluoxetine hydrochloride (3 mg/kg) and ethyl [(7S)-7(2R)-2-(3-chlorophenyl)-2-hydroxyethylamino-5,6,7,8-tetrahydro-naphthalen-2-yloxy]acetate hydrochloride (1 mg/kg).
The injections are performed from day 15 to day 50.
On day 50, each group is subjected to the forced swimming test. […] The immobile time is measured over a period of 5 minutes.

Take `CCOC(=O)COc1ccc2c(c1)C[C@@H](NC[C@H](O)c1cccc(Cl)c1)CC2.Cl` [β3 agonist, ethyl [(7S)-7(2R)-2-(3-chlorophenyl)-2-hydroxyethylamino-5,6,7,8-tetrahydronaphthalen-2-yloxy]acetate hydrochloride]: the “Percentage of time (immobile time of stressed animals relative to the unstressed animals)” value was “+25.1%”, the “Immobile time” value worked out at 182.0 s and the “effect of repeated administration on immobile time (in words)” value is recorded as “does not significantly modify this parameter”.

Regarding `CNCCC(Oc1ccc(C(F)(F)F)cc1)c1ccccc1` (stereo not drawn) [fluoxetine], the “Percentage of time (immobile time of stressed animals relative to the unstressed animals)” value is listed as “+21.5%”, the “Immobile time” value was determined as 178.4 s and the “effect of repeated administration on immobile time (in words)” value is given as “does not significantly modify this parameter”.

Source of the values: patent US20080182899A1, “ASSOCIATION OF BETA3 RECEPTOR AGONIST AND MONOAMINE REUPTAKE INHIBITORS, PHARMACEUTICAL COMPOSITION AND THERAPEUTIC USE THEREOF” (SANOFI-AVENTIS, priority 2005, published 2008).
